Experimental data: patent publication EP0073849A1, “Novel phenyl-1,2,3,4-tetrahydrocarbazoles, their preparation and pharmaceutical compositions containing them” (priority 1981, dated 1983)

Assays:
[1] = tested on: abnormal behaviour of beagles; experiment: improvement of abnormal behaviour in beagles; type: in vivo; conditions: Canis lupus familiaris, po; read-out: MED for improvement of abnormal behaviour in beagles
rat muricide = rat muricide test; type: in vivo; conditions: ip, intraperitoneal administration
Text: In the rat muricide test (based on the method of Horovitz et al., Int. J.

[2] = tested on: behaviour, neurologic function, autonomic function; conditions: rat, in vivo, ip
in vivo [3] = experiment: in vivo; design: species or system beagles; conditions: dog, po
in vivo [4] = conditions: rat, ip
[5] = tested on: beagles with normal behaviour; experiment: in vivo; conditions: dog, po

COc1ccc2[nH]c3c(c2c1)CC(c1ccccc1)CC3 (stereo not drawn) [Test compound, 6-Methoxy-3-phenyl-1,2,3,4-tetrahydrocarbazole]
minimal effective dose [1]: 10 mg/kg | ED50 (rat muricide): 1.7 mg/kg | dosage levels that cause changes in behaviour, in neurologic function or in autonomic function [2]: 100-1000 mg./kg | NOAEL at 6 h (in vivo [3]): > 60 mg/kg | selectivity ratio (in vivo [4]): 50 to 500

CN(C)CCC=C1c2ccccc2CCc2ccccc21 [Amitriptyline]
ED50 (rat muricide): 5.2 mg/kg

CN(C)CCCN1c2ccccc2CCc2ccccc21 [Imipramine]
minimal effective dose [1]: 10 mg/kg | ED50 (rat muricide): 6.4 mg/kg | dosage levels that cause changes in behaviour, in neurologic function or in autonomic function [2]: 30 mg./kg | dose causing decreased motor activity and passivity [5]: 30 mg/kg | dose causing decreased motor activity and passivity as multiple of the MED [5]: three | dose causing tremors and mydriasis [5]: 10 mg/kg
